Experimental data: the supplement of paper PMC10627819

Experiments:
[1] = test system: S. pneumoniae D39V; assay: fitness (endpoint OD595 vs no drug) (fraction); higher = more growth
Summary of the method: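 With the first reading as background, OD595 was measured every 30 min for 14 h in 384-well plates kept at 37 °C and inoculated at OD595 0.01. TSB, LB Lennox or CY was the medium. Fitness is the optical density at the transition into stationary phase divided by the robust mean of no-drug control wells, with a cap of 1.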

[2] = test system: S. pneumoniae D39V; assay: Bliss interaction score (quartile over a dose matrix) (fitness difference); higher = more antagonism (negative = synergy)
Summary of the method: (§1)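 Fitness here means normalised growth, inferred for single drugs from the combination data. Growth was OD595 at entry into stationary phase, divided by the plate's robust no-drug mean and capped at 1. The Bliss score is observed minus expected fitness, with the expectation being the product, and its quartiles span technical, biological and donor/recipient replicates.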

[3] = test system: B. subtilis 168; assay: as above
Summary of the method: as §1

[4] = test system: S. aureus DSM 20231; assay: as above
Summary of the method: as §1

[5] = test system: S. aureus Newman; assay: as above
Summary of the method: as §1
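For Bliss interaction score (quartile over a dose matrix) in this document: first quartile when negative (synergy) and third quartile when positive (antagonism).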
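For fitness (endpoint OD595 vs no drug) in this document: OD595 on entry to stationary phase over no-drug wells; at most 1.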

CC[C@H]1OC(=O)[C@H](C)[C@@H](O[C@H]2C[C@@](C)(OC)[C@@H](O)[C@H](C)O2)[C@H](C)[C@@H](O[C@@H]2O[C@H](C)C[C@H](N(C)C)[C@H]2O)[C@](C)(OC)C[C@@H](C)C(=O)[C@H](C)[C@@H](O)[C@]1(C)O [Clarithromycin] + COc1c(N2C[C@@H]3CCCN[C@@H]3C2)c(F)cc2c(=O)c(C(=O)O)cn(C3CC3)c12 [Moxifloxacin]
fitness, [1], one replicate
Details	first compound 0.007812 µg/mL	first compound 0.01562 µg/mL	first compound 0.03125 µg/mL
partner 0.0037 µg/mL	0.834	0.823	0.648
partner 0.0075 µg/mL	0.85	0.82	0.6
partner 0.015 µg/mL	0.818	0.765	0.572

fitness, [1]
Details	partner 0.005 µg/mL	partner 0.01 µg/mL	partner 0.02 µg/mL	partner 0.0312 µg/mL	partner 0.0625 µg/mL	partner 0.125 µg/mL
first compound 0.0625 µg/mL	0.716	0.748	0.717	–	–	–
first compound 0.07 µg/mL	–	–	–	0.056	0.0339	0.0389
first compound 0.14 µg/mL	–	–	–	0.0451	0.0439	0.0343
first compound 0.25 µg/mL	0.217	0.235	0.238	–	–	–
first compound 0.28 µg/mL	–	–	–	0.0421	0.0312	0.0325

Details	Bliss interaction score
[2]	0.0742
[3]	0.0403
[4]	0.0891
[5]	0.123

CC[C@H]1OC(=O)[C@H](C)[C@@H](O[C@H]2C[C@@](C)(OC)[C@@H](O)[C@H](C)O2)[C@H](C)[C@@H](O[C@@H]2O[C@H](C)C[C@H](N(C)C)[C@H]2O)[C@](C)(OC)C[C@@H](C)C(=O)[C@H](C)[C@@H](O)[C@]1(C)O [Clarithromycin] + COc1ccc(C[C@H](N)C(=O)N[C@H]2[C@@H](O)[C@H](n3cnc4c(N(C)C)ncnc43)O[C@@H]2CO)cc1 [Puromycin]
fitness, [1], one replicate
Details	first compound 0.007812 µg/mL	first compound 0.01562 µg/mL	first compound 0.03125 µg/mL	first compound 0.0625 µg/mL	first compound 0.125 µg/mL	first compound 0.25 µg/mL
partner 1 µg/mL	0.947	0.867	0.676	0.419	0.138	0.112
partner 2 µg/mL	0.839	0.805	0.612	0.504	0.192	0.0762
partner 4 µg/mL	0.667	0.617	0.467	0.255	0.15	0.134

fitness, [1]
Details	first compound 0.07 µg/mL	first compound 0.14 µg/mL	first compound 0.28 µg/mL
partner 1 µg/mL	0.131	0.0877	0.11
partner 2 µg/mL	0.125	0.096	0.0799
partner 4 µg/mL	0.12	0.122	0.0797

Details	Bliss interaction score
[2]	-0.0827
[3]	0.0559
[4]	0.0616
[5]	-0.0662

CC[C@H]1OC(=O)[C@H](C)[C@@H](O[C@H]2C[C@@](C)(OC)[C@@H](O)[C@H](C)O2)[C@H](C)[C@@H](O[C@@H]2O[C@H](C)C[C@H](N(C)C)[C@H]2O)[C@](C)(OC)C[C@@H](C)C(=O)[C@H](C)[C@@H](O)[C@]1(C)O [Clarithromycin] + COc1cccc2c1C(=O)c1c(O)c3c(c(O)c1C2=O)C[C@@](O)(C(=O)CO)C[C@@H]3O[C@H]1C[C@H](N)[C@H](O)[C@H](C)O1 [Doxorubicin]
fitness, [1], one replicate
Details	first compound 0.007812 µg/mL	first compound 0.01562 µg/mL	first compound 0.03125 µg/mL
partner 0.25 µg/mL	0.866	0.825	0.633
partner 0.5 µg/mL	0.841	0.798	0.621
partner 1 µg/mL	0.794	0.777	0.608

fitness, [1]
Details	first compound 0.0625 µg/mL	first compound 0.07 µg/mL	first compound 0.125 µg/mL	first compound 0.14 µg/mL	first compound 0.25 µg/mL	first compound 0.28 µg/mL
partner 0.25 µg/mL	0.457	0.112	0.277	0.0456	0.077	0.0403
partner 0.5 µg/mL	0.495	0.106	0.295	0.0366	0.107	0.0281
partner 1 µg/mL	0.411	0.103	0.188	0.0523	0.0684	0.0955

Details	Bliss interaction score
[2]	-0.0578
[3]	0.0718
[4]	0.0858
[5]	0.105

CC[C@H]1OC(=O)[C@H](C)[C@@H](O[C@H]2C[C@@](C)(OC)[C@@H](O)[C@H](C)O2)[C@H](C)[C@@H](O[C@@H]2O[C@H](C)C[C@H](N(C)C)[C@H]2O)[C@](C)(OC)C[C@@H](C)C(=O)[C@H](C)[C@@H](O)[C@]1(C)O [Clarithromycin] + C[C@@H]1O[C@@H]1P(=O)(O)O [Fosfomycin]
fitness, [1], one replicate
Details	first compound 0.007812 µg/mL	first compound 0.01562 µg/mL	first compound 0.03125 µg/mL
partner 1.25 µg/mL	0.863	0.828	0.641
partner 2.5 µg/mL	0.775	0.804	0.634
partner 5 µg/mL	0.669	0.63	0.559

fitness, [1]
Details	first compound 0.0625 µg/mL	first compound 0.07 µg/mL	first compound 0.125 µg/mL	first compound 0.14 µg/mL	first compound 0.25 µg/mL	first compound 0.28 µg/mL
partner 1.25 µg/mL	0.543	0.171	0.332	0.088	0.139	0.102
partner 2.5 µg/mL	0.538	0.102	0.323	0.0599	0.13	0.0306
partner 5 µg/mL	0.485	0.0461	0.288	0.057	0.132	0.0557

Details	Bliss interaction score
[2]	0.0544
[3]	0.0504
[4]	-0.0843
[5]	-0.114

CC[C@H]1OC(=O)[C@H](C)[C@@H](O[C@H]2C[C@@](C)(OC)[C@@H](O)[C@H](C)O2)[C@H](C)[C@@H](O[C@@H]2O[C@H](C)C[C@H](N(C)C)[C@H]2O)[C@](C)(OC)C[C@@H](C)C(=O)[C@H](C)[C@@H](O)[C@]1(C)O [Clarithromycin] + C[C@@H](O)[C@H]1C(=O)N2C(C(=O)O)=C(SCCNC=N)C[C@H]12 [Imipenem]
fitness, [1], one replicate
Details	first compound 0.007812 µg/mL	first compound 0.01562 µg/mL	first compound 0.03125 µg/mL
partner 0.005 µg/mL	0.831	0.812	0.589
partner 0.01 µg/mL	0.855	0.837	0.612
partner 0.02 µg/mL	0.858	0.844	0.629

fitness, [1]
Details	first compound 0.0625 µg/mL	first compound 0.07 µg/mL	first compound 0.125 µg/mL	first compound 0.14 µg/mL	first compound 0.25 µg/mL	first compound 0.28 µg/mL
partner 0.005 µg/mL	–	0.13	–	0.0799	–	0.0611
partner 0.0065 µg/mL	0.541	–	0.154	–	0.0361	–
partner 0.01 µg/mL	–	0.146	–	0.0799	–	0.0532
partner 0.013 µg/mL	0.661	–	0.277	–	0.0557	–
partner 0.02 µg/mL	–	0.17	–	0.109	–	0.0635
partner 0.026 µg/mL	0.621	–	0.201	–	0.0493	–

Details	Bliss interaction score
[2]	-0.085
[3]	0.0428
[4]	0.0295
[5]	0.0267

CC[C@H]1OC(=O)[C@H](C)[C@@H](O[C@H]2C[C@@](C)(OC)[C@@H](O)[C@H](C)O2)[C@H](C)[C@@H](O[C@@H]2O[C@H](C)C[C@H](N(C)C)[C@H]2O)[C@](C)(OC)C[C@@H](C)C(=O)[C@H](C)[C@@H](O)[C@]1(C)O [Clarithromycin] + C[C@H]1COc2c(N3CCN(C)CC3)c(F)cc3c(=O)c(C(=O)O)cn1c23 [Levofloxacin]
fitness, [1], one replicate
Details	first compound 0.007812 µg/mL	first compound 0.01562 µg/mL	first compound 0.03125 µg/mL
partner 0.2 µg/mL	0.782	0.811	0.599
partner 0.4 µg/mL	0.646	0.726	0.533
partner 0.8 µg/mL	0.257	0.316	0.244

[1]
Details	fitness
first compound 0.0625 µg/mL, partner 0.1725 µg/mL	0.701
first compound 0.0625 µg/mL, partner 0.345 µg/mL	0.691
first compound 0.0625 µg/mL, partner 0.69 µg/mL	0.371
first compound 0.07 µg/mL, partner 0.2 µg/mL	0.139
first compound 0.07 µg/mL, partner 0.4 µg/mL	0.134
first compound 0.07 µg/mL, partner 0.8 µg/mL	0.0857
first compound 0.125 µg/mL, partner 0.1725 µg/mL	0.486
first compound 0.125 µg/mL, partner 0.345 µg/mL	0.463
first compound 0.125 µg/mL, partner 0.69 µg/mL	0.349
first compound 0.14 µg/mL, partner 0.2 µg/mL	0.0726
first compound 0.14 µg/mL, partner 0.4 µg/mL	0.0532
first compound 0.14 µg/mL, partner 0.8 µg/mL	0.063
first compound 0.25 µg/mL, partner 0.69 µg/mL	0.242
first compound 0.28 µg/mL, partner 0.2 µg/mL	0.0574
first compound 0.28 µg/mL, partner 0.4 µg/mL	0.0463
first compound 0.28 µg/mL, partner 0.8 µg/mL	0.0433

Details	Bliss interaction score
[2]	-0.0537
[3]	0.0707
[4]	0.0901
[5]	0.0872

CC[C@H]1OC(=O)[C@H](C)[C@@H](O[C@H]2C[C@@](C)(OC)[C@@H](O)[C@H](C)O2)[C@H](C)[C@@H](O[C@@H]2O[C@H](C)C[C@H](N(C)C)[C@H]2O)[C@](C)(OC)C[C@@H](C)C(=O)[C@H](C)[C@@H](O)[C@]1(C)O [Clarithromycin] + C[C@H]1c2cccc(O)c2C(=O)C2=C(O)[C@]3(O)C(=O)C(C(N)=O)=C(O)[C@@H](N(C)C)[C@@H]3[C@@H](O)[C@@H]21 [Doxycycline]
fitness, [1], one replicate
Details	first compound 0.007812 µg/mL	first compound 0.01562 µg/mL	first compound 0.03125 µg/mL	first compound 0.0625 µg/mL	first compound 0.125 µg/mL	first compound 0.25 µg/mL
partner 0.003875 µg/mL	–	–	–	0.674	0.375	0.0974
partner 0.00775 µg/mL	–	–	–	0.736	0.317	0.115
partner 0.0155 µg/mL	0.731	0.708	0.61	–	–	–
partner 0.031 µg/mL	0.681	0.669	0.609	0.464	0.143	0.101
partner 0.062 µg/mL	0.587	0.482	0.266	0.267	0.129	0.0712

fitness, [1]
Details	first compound 0.0625 µg/mL	first compound 0.07 µg/mL	first compound 0.125 µg/mL	first compound 0.14 µg/mL	first compound 0.25 µg/mL	first compound 0.28 µg/mL
partner 0.0155 µg/mL	0.574	0.0409	0.223	0.0521	0.143	0.0358
partner 0.031 µg/mL	–	0.0283	–	0.0438	–	0.0338
partner 0.062 µg/mL	–	0.0302	–	0.0541	–	0.0267

Details	Bliss interaction score
[2]	-0.107
[3]	-0.324
[4]	-0.161
[5]	-0.116
